Assay results reported in article PMC5703966, “Systemic clearance and brain distribution of carbazole-based cyanine compounds as Alzheimer’s disease drug candidates” (Scientific Reports, 2017).
Values joined by “and” are separate entries in the source; they are usually repeats but may differ in a detail not shown here. Identical values can stand only once. Like-named read-outs stand apart in the source and are kept apart here.

Columns and labels:
C57BL/6 mice = test: Systemic clearance and pharmacokinetics after i.v. dose in C57BL/6 mice aging 2 months; type: in vivo, mouse; details: for Cl u, renal/GFR Ratio: GFR in mice 0.6 L/h per Kg; for dose dependence of kinetics: i.v. 0.2 mg/kg to 4 mg/kg in mice; for biliary clearance share of plasma clearance / remaining / hepatic clearance share of plasma clearance (Clhep/Clp) / renal clearance share of plasma clearance: mice; for Liver first pass elimination: mouse, in vivo; for Cl u, renal: total Cl renal normalised with unbound free fraction in blood
Description: (§1) Male C57BL/6 and Bile duct-cannulated (BDC) mice (2 months, weighting: 25–30 g) obtained from Charles River, Inc. (Raleigh, NC) were used to study systemic clearance mechanism, in line with in vitro commercial samples from adolescent animals. Mice were fasted overnight and throughout the duration of the study ([…]), whereas access to water was provided ad libitum. SLOH and SLM were administered i.v. in PBS containing 5% DMSO via the tail vein (n = 5) at different dosages in a dosing volume of 5 mL/kg. Serial blood samples were collected before dosing and at 0.083, 0.167, 0.25, 0.5, 1, 2, 4, 8, 12 and 24 hours after dosing. Urine samples (0–12 and 12–24 hours; pooled 0–24 hours) were also collected after i.v. administration (1 mg/kg). Bile samples were collected at intervals of 0–4, 4–8 and 8–24 hours (pooled 0–24 hours) after dosing (1 mg/kg) to BDC mice.
(§2) Parameters in animals were determined using non-compartmental analysis. […] Systemic Cl p was calculated as the i.v. dose divided by AUC0−∞ ^iv. The terminal rate constant (K el) was calculated by a linear regression of the log-linear concentration-time curve, and the terminal elimination t 1/2 was calculated as 0.693 divided by K el. Mean residence time from t = 0 to infinity (MRT 0−∞) was calculated as AUMC 0−∞ divided by AUC 0−∞. Apparent steady-state distribution volume (Vd ss) was determined as Cl p multiplied by MRT 0−∞. […] The Cl bile was derived as the amount of (in milligrams) of SLM or SLOH in the bile over the 24-hour interval postdose/AUC0-24h. The influx clearance into brain (K in) was calculated by using the amount of drug in the brain (homogenate) at time t (A, brain (t)) (corrected for the amount of drug remaining in the cerebral vasculature) divided by plasma exposure up to this time point (AUC, plasma (0 − t)). The C u,brain was calculated by A brain (homogenate, ng/g brain) divided by V u,brain (mL/g brain). The unbound ISF to plasma ratio (K puu,brain) was calculated by unbound AUC 0−t of ISF (ng/mL × min) divided by unbound AUC 0–t (ng/mL × min) of plasma.

[1] = as above; type: in vivo, mouse; details: male, iv; for clearance / AUC(0-inf) / half-life / MRT inf / Vd: C57BL/6, mouse, plasma; for clearance: read-out: Cl p (converted); for MRT inf: read-out: MRT 0-∞; for Vd: read-out: Vd ss; for CL renal: mouse, urine and plasma, C57BL/6 mice, urine 0–24 h, read-out: Total Cl renal (converted)
Description: as §1, §2

[2] = 1 mg/kg, C57BL/6 mice 2 months, i.v. 1 mg/kg

Cl u, renal/GFR Ratio (C57BL/6 mice) | dose dependence of kinetics (C57BL/6 mice) | biliary clearance share of plasma clearance (C57BL/6 mice) | remaining / hepatic clearance share of plasma clearance (Clhep/Clp) (C57BL/6 mice) | renal clearance share of plasma clearance (C57BL/6 mice) | Liver first pass elimination (C57BL/6 mice) | clearance ([1]; 0.2 mg/kg, i.v. 0.2 mg/kg) | clearance ([1]; 0.6 mg/kg, i.v. 0.6 mg/kg) | clearance [1, 2] | clearance ([1]; 2 mg/kg, i.v. 2.0 mg/kg) | clearance ([1]; 4 mg/kg, i.v. 4.0 mg/kg) | AUC(0-inf) ([1]; i.v. 0.2 mg/kg) | half-life ([1]; i.v. 0.2 mg/kg) | MRT inf ([1]; i.v. 0.2 mg/kg) | Vd ([1]; i.v. 0.2 mg/kg) | AUC(0-inf) ([1]; i.v. 0.6 mg/kg) | half-life ([1]; i.v. 0.6 mg/kg) | MRT inf ([1]; i.v. 0.6 mg/kg) | Vd ([1]; i.v. 0.6 mg/kg) | Structure (SMILES) | Cl u, renal (C57BL/6 mice) | also measured
0.260 ± 0.0400^$$ | linearity kinetics dependent on dose | 34.0% | 64.0% | 1.10% | 16.0 % liver blood flow | 15.5 mL/min/kg | 12.8 mL/min/kg | ~10.2 mL/min/kg | 10.7 mL/min/kg | 11.8 mL/min/kg | 220 ± 61 ng·h/mL | 6.9 ± 3.7 h | 2.7 ± 1.5 h | 1 ± 0.33 L/kg | 860 ± 310 ng·h/mL | 5.5 ± 1.1 h | 2.3 ± 0.78 h | 1.2 ± 0.58 L/kg | COCCOCCn1c2ccccc2c2cc(/C=C/c3cc[n+](CCO)c4ccccc34)ccc21 [SLOH, (E)-1-(2-hydroxyethyl)-4-(2-(9-(2-(2-metho-xyethoxy)-ethyl)-9H-carbazol-3-yl)vinyl) quinolin-1-ium chloride] | 0.160 L/h per Kg and 0.160 ± 0.0300^$$ L/h per Kg | Cl p (C57BL/6 mice; C57BL/6 mice 2 months, i.v. 1 mg/kg, 1 mg/kg): 0.610 ± 0.140 L/h per Kg; half-life ([1]; i.v. 1.0 mg/kg): 5.8 ± 0.16 h; MRT inf ([1]; i.v. 1.0 mg/kg): 1.8 ± 0.1 h; Vd ([1]; i.v. 1.0 mg/kg): 0.83 ± 0.43 L/kg; half-life ([1]; i.v. 2.0 mg/kg): 4.6 ± 0.76 h; MRT inf ([1]; i.v. 2.0 mg/kg): 1.8 ± 0.17 h; Vd ([1]; i.v. 2.0 mg/kg): 1 ± 0.36 L/kg; half-life ([1]; i.v. 4.0 mg/kg): 5.8 ± 1.7 h; MRT inf ([1]; i.v. 4.0 mg/kg): 1.7 ± 0.08 h; Vd ([1]; i.v. 4.0 mg/kg): 1 ± 0.35 L/kg; CL renal ([1]; i.v. 1 mg/kg): 0.167 mL/min/kg
1.90 ± 0.390 | linearity kinetics dependent on dose | 38.0% | 58.0% | 4.50% | 16.0 % liver blood flow | 14.8 mL/min/kg | 15.5 mL/min/kg | ~11.8 mL/min/kg | 12.5 mL/min/kg | 13.8 mL/min/kg | 240 ± 74 ng·h/mL | 6.4 ± 4 h | 3.5 ± 0.95 h | 1.5 ± 0.63 L/kg | 580 ± 170 ng·h/mL | 6 ± 1.1 h | 3.7 ± 0.86 h | 2.1 ± 0.54 L/kg | COCCOCCn1c2ccccc2c2cc(/C=C/c3cc[n+](C)c4ccccc34)ccc21.[I-] [SLM, (E)-4-(2-(9-(2-(2-methoxyethoxy)ethyl)-9H-carbazol-3-yl)-vinyl)-1-methyl-quinolin-1-iumiodide] | 1.10 L/h per Kg and 1.10 ± 0.230 L/h per Kg | half-life ([1]; i.v. 1.0 mg/kg): 9.3 ± 3.3 h; MRT inf ([1]; i.v. 1.0 mg/kg): 3.2 ± 1 h; Vd ([1]; i.v. 1.0 mg/kg): 2.2 ± 0.61 L/kg; half-life ([1]; i.v. 2.0 mg/kg): 7.1 ± 0.55 h; MRT inf ([1]; i.v. 2.0 mg/kg): 2.5 ± 0.18 h; Vd ([1]; i.v. 2.0 mg/kg): 1.7 ± 0.55 L/kg; half-life ([1]; i.v. 4.0 mg/kg): 6.5 ± 2 h; MRT inf ([1]; i.v. 4.0 mg/kg): 3 ± 0.52 h; Vd ([1]; i.v. 4.0 mg/kg): 2.1 ± 0.2 L/kg; CL renal ([1]; i.v. 1 mg/kg): 0.667 mL/min/kg
